Test results as given in patent US4874776A, “Compound having mucus regulating and elastase-inhibitory activities, for the therapy of pulmonal emphysema and pulmonal fibrosis” (Yason S.r.l., priority 1988, dated 1989).

Experiments:
[1] = system: secretion of respiratory tract; test: Bronchosecretagogue activity, sodium fluoresceine test; type: in vivo, rat; details: male Wistar rats, 100 mg/kg; for SODIUM FLUORESCEINE: 10 animals
Description: Bronchosecretagogue activity was evaluated by means of sodium fluoresceine test, according to the procedure by Mawatari ("Experimental studies on the expectorant action of several drugs" Kagoshima Kaigaken Igaken Zasshi 27, 561, 1976), said test consisting in determining the sodium fluoresceine amount eliminated from respiratory tract: the higher the secretion, the higher the amount of sodium fluoresceine eliminated. Accordingly, any compound increasing the secretion of respiratory tract causes an increase in sodium fluoresceine elimination, which can easily be calculated.
Male Wistar rats (100-200 g body weight), fasted for 18 hours, with water "ad libitum", were administered with YS 795 at the dose of 100 mg/kg and, by comparison, with carboxymethyl cystein at equiponderal doses, by the oral route.
30 minutes after the treatment, sodium fluoresceine was injected subcutaneously and 30 minutes after the animals were killed by bleeding. The whole respiratory tree was then withdrawn and the percentage of sodium fluoresceine present was evaluated.

[2] = Solubility of the obtained compound; type: physicochemical
[3] = Acute toxicity (LD50, Litchfield and Wilcoxon) in the mouse; details: in vivo, read-out: DL50 (the source's name)
Description: (§1) Acute toxicity of YS 795 was calculated in the rat and the mouse after both oral and intraperitoneal administrations.
(§2) LD50 was determined according to the method of Litchfield and Wilcoxon (J. Pharmacol. Exp. Therap. 96, 99-118, 1949).

[4] = Pharmacokinetics, plasma and tissue concentrations by gaschromatographic analysis; type: in vivo; details: rat
Description: Male CD-COBS rats weighing 200-220 g were used, treated with YS 795 and 4-thiazolidine-carboxylic acid by the oral or intraperitoneal route, in equimolecular amounts (YS 795=795=100 mg/kg; thiazolidine-carboxylic acid =65 mg/kg).
One hour after the treatment the animals were killed by beheading; blood was collected in heparinized test-tubes and centrifuged for 10 minutes at 3500 rpm to prepare plasma. The tissues (liver, lung, kidney and brain) were homogenized in 4 volumes of 0,05M phosphate buffer.
Tissular concentrations were studied by gaschromatographic analysis.

[5] = system: patients affected by chronic bronchitis; test: Clinical study in patients affected by chronic bronchitis (tolerability and mucus regulating activity); type: in vivo, human; details: 3×300 mg capsules a day
Description: YS 795 in capsules was administered to hospitalized patients affected by chronic bronchitis, in order to test tolerability and mucus regulating activity.
10 patients, 5 males and 5 females, of 65-70 years age, smokers or ex-smokers, were treated with YS 795 administered at a dose of 3×300 mg capsules a day, in the morning, at noon and in the night, with full stomach, for a period of 4 weeks.
All drugs having mucolytic, bronchodynamic, steroidal and balsamic activities were excluded during the observation period, whereas the "routine" therapy of concomitant diseases, based on administration of diuretic, hypotensive, antidiabetic, vasodilating and antibiotic drugs, was continued.
Before and after the treatment, tests were carried out to evaluate possible side-effects of YS 795 on hemopoietic, hepatic and renal functions; heart rate and arterial pressure were further checked during the treatment.

[6] = system: emphysema induced by porcine pancreatic elastase; test: Emphysema induced by porcine pancreatic elastase in the hamster; type: in vivo
Description: Emphysema induced by porcine pancreatic elastase in the hamster.
Capability of YS 795 in preventing emphysema caused by instillation of elastase was studied according to the method by Stone P. J. et al. (Am. Rev. Respir. Dis.; 124/1; 1981) and by Yu et al. ("Elastin and elastic tissues"; Plenum Press; New York; 1977).
16 Hamsters weighing 100-120 g were divided in 4 groups of 4 animals each (Groups A, B, C and controls) and treated as follows:
Group A: in tratracheal instillation of 0,1 mg of porcine pancreatic elastase 1 hour after administration of 100 mg/kg of YS 795.
Group B: YS 795 was administered 1 hour after elastase instillation.
Group C: YS 795 was administered 4 hours after elastase instillation.
Controls: physiological saline was administered 1 hour after elastase instillation.
At set times (72 hours and 12 days), the animals were killed after intraperitoneal anesthesia with pentobarbital. Lungs were intubated through trachea and fixed.
Morphological and morphometrical analysis of the pulmonal sections were then carried out under a microscope.

[7] = system: hepatic intoxication induced by carbon tetrachloride; test: Hepato-protecting activity, hepatic intoxication induced by carbon tetrachloride; type: in vivo, rat; details: male Wistar rats, 100 mg/kg i.p.; for GPT x ± es: 15 minutes before CCl4 0,15 ml/kg oral, 24 hours; for GPT % INHIBITION VS. CONTROLS: CCl4 0,15 ml/kg
Description: Hepato-protecting activity of YS 795 was evaluated in comparison with N-acetylcystein, by means of the test of hepatic intoxication induced by carbon tetrachloride, according to the method by Sanna et al. (Experientia, 32 (1), 91, 1976).
Male Wistar rats (268-346 g body weight) fasted for 18 hours, with water "ad libitum", were used.
YS 795 and N-acetylcystein were administered intraperitoneally at the dose of 100 mg/kg, whereas the control group received the only carrier.
15 minutes after the drug administration, the animals were treated orally with 0,15 ml/kg of carbon tetrachloride.
After 24 more hours, the animals were killed by bleeding after ether anesthesia.

[8] = Acute toxicity (LD50, Litchfield and Wilcoxon) in the rat; details: in vivo, read-out: DL50 (the source's name)
Description: as §1, §2

elastase = test: Elastase-inhibitory activity; type: biochemical
Description: Inhibition of elastase activity by YS 795 was evaluated according to the method by D. A. Hall, S. El Ridi (Methods of connective tissue research, Ioyson-Bruvvers Ltd.; Oxford--1976) and by R. M. Senior et al. (Elastine and elastic Tissue, Plenum Press, pp. 249-254, New York--1977).

collagenase = test: Collagenase inhibitory activity; type: biochemical; details: read-out: IC50 collagenase inhibition
Description: The inhibition of collagenase by means of YS 795 was evaluated according to the method by C. L. Hu, G. Crombie, C. Franzeblau (Analyt., Biochem. 88, 638, 1978).

NC(CSCC(=O)O)C(=O)O (stereo not drawn) [S--CARBOXYMETHYLCYSTEIN, reference compound]
SODIUM FLUORESCEINE % Δ vs. controls [1]: 80,6%
SODIUM FLUORESCEINE [1]: 0,56 μg/ml

CCOC(=O)N1CSCC1C(=O)O (stereo not drawn) [YS 795, N-carbethoxy-4-thiazolidine-carboxylic acid]
Solubility in common organic solvents ([2]; common organic solvents): soluble in common organic solvents
Solubility in water ([2]; water): unsoluble in water
LD50 ([3]; ip, female): 372 mg/kg
LD50 ([3]; ip, male): 380 mg/kg
LD50 ([3]; po, os, male): > 4000 mg/kg
Metabolism [4]: subsequently metabolized to n-thiazolidine-carboxylic acid
Time till which the compound is still found as such [4]: 12 h
Time of plasmatic concentration peak ([4]; after the administration): between the first and the second hour
Drug amounts in liver and lungs in comparison with thiazolidine-carboxylic acid ([4]; equimolecular amounts (100 mg/kg vs. 65 mg/kg)): remarkanly higher
Tissue distribution (liver, lung, kidney, brain) ([4]; found as such and as thiazolidine-carboxylic derivative): present in all the examined tissues
Absorption ([4]; oral and intraperitoneal route, 100 mg/kg): well adsorbed by both oral and intraperitonel route
Fluidifying and mucus regulating activities ([5]; patients with chronic bronchitis, 4 weeks): good fluidifying and mucus regulating activities
Effects on arterial pressure and heart rate ([5]; patients, 4 weeks): no clinically significant effects
Tolerability at gastric level ([5]; patients, 4 weeks): well tolerated
Effect on hemopoietic, hepatic and renal functions (laboratory tests) ([5]; patients, before and after 4 weeks): does not affect hemopoietic, hepatic and renal functions
Effect of the time of administration on the antiemphysema effect ([6]; administered 1 hour before vs. 1 or 4 hours after elastase instillation): more marked when YS 795 was administered before elastase instillation
Antagonism of pulmonal emphysema (morphological and morphometrical analysis of pulmonal sections) ([6]; hamster, 100 mg/kg, 0,1 mg elastase intratracheal, 72 hours and 12 days): can antagonize pulmonal emphysema induced by porcine pancreatic elastase
GPT x ± es [7]: 220 ± 84,47 U/L
GPT % INHIBITION VS. CONTROLS [7]: 38,4%
SODIUM FLUORESCEINE % Δ vs. controls [1]: 70,9%
SODIUM FLUORESCEINE [1]: 0,53 μg/ml
LD50 ([8]; ip, female): 420 mg/kg
LD50 ([8]; ip, male): 415 mg/kg
LD50 ([8]; po, os, male): > 4000 mg/kg
IC50 (elastase): 11 mM
IC50 (collagenase): 15 mM

CC(=O)N[C@@H](CS)C(=O)O [N--ACETYLCYSTEIN, N-acetylcystein, reference compound]
GPT x ± es [7]: 168,2 ± 8,68 U/L
GPT % INHIBITION VS. CONTROLS [7]: 52,9%
